The source made the active and inactive calls. The rule behind the calls is not given here.
Assays:
[1] = Antimigratory activity against EGF induced chemotaxis in human MDA-MB-231 cells preincubated for 24 hrs followed by EGF addition for 3.5 hrs by light microscopy; assay type: functional, cell-based
[2] = system: MDA-MB-231; assay: Antiinvasive activity in human MDA-MB-231 cells after 24 hrs by transwell migration assay; assay type: functional, cell-based
[3] = system: MDA-MB-231; assay: Antimigratory activity in human MDA-MB-231 cells after 24 hrs by wound healing assay; assay type: functional, cell-based
[4] = system: MDA-MB-231; assay: Antimigratory activity in human MDA-MB-231 cells assessed as decrease in cell adhesion to fibronectin at 1 to 40 uM after 24 hrs by MTT assay; assay type: functional, cell-based
[5] = system: MDA-MB-231; assay: Inhibition of PI3K-p85 phosphorylation in human MDA-MB-231 cells by Western blot analysis; assay type: cell-based
[6] = system: MDA-MB-231; assay: Inhibition of PI3K-p85 in human MDA-MB-231 cells assessed as reduction in Akt phosphorylation by Western blot analysis; assay type: cell-based
[7] = target: Integrin beta-1 (Homo sapiens) (UniProt P05556); assay: Inhibition of integrin-beta1 phosphorylation in human MDA-MB-231 cells by Western blot analysis; assay type: cell-based
Integrin beta-1 (Homo sapiens), sequence (P05556 whole entry): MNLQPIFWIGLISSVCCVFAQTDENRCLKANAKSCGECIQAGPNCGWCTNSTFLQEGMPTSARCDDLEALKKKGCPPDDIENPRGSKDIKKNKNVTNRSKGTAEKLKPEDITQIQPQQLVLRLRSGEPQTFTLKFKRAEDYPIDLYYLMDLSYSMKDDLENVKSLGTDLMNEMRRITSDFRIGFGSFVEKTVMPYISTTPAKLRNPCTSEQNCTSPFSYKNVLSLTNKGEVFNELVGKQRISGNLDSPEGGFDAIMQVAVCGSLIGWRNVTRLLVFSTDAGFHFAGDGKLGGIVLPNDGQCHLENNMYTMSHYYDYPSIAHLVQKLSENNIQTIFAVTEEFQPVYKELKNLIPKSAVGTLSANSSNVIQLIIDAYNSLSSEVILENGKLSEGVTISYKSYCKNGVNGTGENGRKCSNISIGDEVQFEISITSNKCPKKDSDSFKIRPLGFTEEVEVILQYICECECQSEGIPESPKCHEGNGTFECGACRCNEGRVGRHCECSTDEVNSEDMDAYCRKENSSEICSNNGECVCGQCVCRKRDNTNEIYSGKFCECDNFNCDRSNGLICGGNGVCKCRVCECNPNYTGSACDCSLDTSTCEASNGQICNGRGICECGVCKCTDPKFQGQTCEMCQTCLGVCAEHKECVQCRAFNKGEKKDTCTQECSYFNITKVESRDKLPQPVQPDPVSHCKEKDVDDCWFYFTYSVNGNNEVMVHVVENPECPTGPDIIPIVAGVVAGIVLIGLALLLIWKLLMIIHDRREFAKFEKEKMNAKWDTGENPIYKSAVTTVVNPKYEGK

[8] = Effect on integrin-beta1 protein expression in human MDA-MB-231 cells at 5 to 45 uM by Western blot analysis; assay type: ADME, cell-based; conditions: mda-mb-231, 45 µM
[9] = system: MDA-MB-231; assay: Inhibition of PI3K-p85 in human MDA-MB-231 cells assessed as reduction in PKCzeta phosphorylation by Western blot analysis; assay type: cell-based
[10] = Effect on PKCzeta protein expression in human MDA-MB-231 cells at 0.25 to 6.75 uM by Western blot analysis; assay type: ADME, cell-based; conditions: mda-mb-231, 6.75 µM
[11] = Antimigratory activity in human HepG2 cells at 4.5 uM after 24 hrs by wound healing assay; assay type: functional
[12] = Anti-invasive activity in human HepG2 cells at 4.5 uM after 24 hrs by MTT dye based boyden chamber assay; assay type: functional
[13] = system: MDA-MB-231; assay: Antimigratory activity in human MDA-MB-231 cells assessed as decrease in cell adhesion at 0.25 uM after 24 hrs by MTT assay; assay type: functional, cell-based
[14] = Homo sapiens, MDA-MB-231, read-out: IC50

IC50 [1, 14]	Compound	further results
–	C/C=C1/C(=O)C[C@H]2[C@@H]3CCC4C[C@H](NC)CC[C@]4(C)[C@H]3CC[C@]12C (stereo partly specified)	IC50 ([1]; mda-mb-231): Nd(Toxic)
–	C/C=C1/[C@H](O)C[C@H]2[C@@H]3CCC4C[C@@H](N(C)C)CC[C@]4(C)[C@H]3CC[C@]12C (stereo partly specified)	IC50 ([1]; mda-mb-231): Nd(Toxic)
0.03 µM	C/C=C1/C(=O)C[C@H]2[C@@H]3CCC4C[C@H](N5CCCCC5)CC[C@]4(C)[C@H]3CC[C@]12C (stereo partly specified)	Activity [2]: Dose-dependent effect; Activity [3]: Dose-dependent effect; Activity [4]: Active; inhibition [5]: Dose-dependent effect; inhibition [6]: Dose-dependent effect; inhibition [7]: Dose-dependent effect; Activity [8]: Non-Toxic; inhibition [9]: Dose-dependent effect; Activity [10]: Non-Toxic
–	C/C=C1/[C@H](O)C[C@H]2[C@@H]3CCC4C[C@H](NCc5ccc(C#N)cc5)CC[C@]4(C)[C@H]3CC[C@]12C (stereo partly specified)	IC50 ([1]; mda-mb-231): Nd(Toxic)
18.9 µM	C/C=C1/C(=O)C[C@H]2[C@@H]3CCC4C[C@@H](NC)CC[C@]4(C)[C@H]3CC[C@]12C (stereo partly specified)	–
7.45 µM	C/C=C1/CC[C@H]2[C@@H]3CCC4C[C@H](N(C)C)CC[C@]4(C)[C@H]3CC[C@]12C (stereo partly specified)	–
> 50 µM	C/C=C1/C(=O)C[C@H]2[C@@H]3CCC4C[C@H](N5CCCC5)CC[C@]4(C)[C@H]3CC[C@]12C (stereo partly specified)	–
32.8 µM	C/C=C1/[C@H](O)C[C@H]2[C@@H]3CCC4C[C@H](NCC)CC[C@]4(C)[C@H]3CC[C@]12C (stereo partly specified)	–
1.08 µM	C/C=C1/[C@H](O)C[C@H]2[C@@H]3CCC4C[C@H](N)CC[C@]4(C)[C@H]3CC[C@]12C (stereo partly specified)	–
7.37 µM	C/C=C1/C(=O)C[C@H]2[C@@H]3CCC4C[C@H](N(C)C)CC[C@]4(C)[C@H]3CC[C@]12C (stereo partly specified)	–
0.38 µM	O=c1cc(N2CCOCC2)oc2c(-c3ccccc3)cccc12 [LY-294002]	–
2.14 µM	C/C=C1/C(=O)C[C@H]2[C@@H]3CCC4C[C@@H](N(C)C)CC[C@]4(C)[C@H]3CC[C@]12C (stereo partly specified)	–
–	C[C@@H]1CC[C@@]2(NC1)O[C@H]1C[C@H]3[C@@H]4CC=C5C[C@@H](O[C@@H]6O[C@H](CO)[C@@H](O[C@@H]7O[C@@H](C)[C@H](O)[C@@H](O)[C@H]7O)[C@H](O)[C@H]6O[C@@H]6O[C@@H](C)[C@H](O)[C@@H](O)[C@H]6O)CC[C@]5(C)[C@H]4CC[C@]3(C)[C@H]1[C@@H]2C [SOLAMARGINE]	Activity [11]: 40%; Activity [12]: 40%
0.3 µM	C/C=C1/C(=O)C[C@H]2[C@@H]3CCC4C[C@H](N)CC[C@]4(C)[C@H]3CC[C@]12C (stereo partly specified)	–
15.9 µM	C/C=C1/[C@H](O)C[C@H]2[C@@H]3CCC4C[C@@H](NCc5ccc(C#N)cc5)CC[C@]4(C)[C@H]3CC[C@]12C (stereo partly specified)	–
> 50 µM	C/C=C1/[C@H](O)C[C@H]2[C@@H]3CCC4C[C@H](N(C)C)CC[C@]4(C)[C@H]3CC[C@]12C (stereo partly specified)	–
21.4 µM	C/C=C1/[C@H](O)C[C@H]2[C@@H]3CCC4C[C@@H](N5CCCCC5)CC[C@]4(C)[C@H]3CC[C@]12C (stereo partly specified)	–
–	C/C=C1/[C@H](O)C[C@H]2[C@@H]3CCC4C[C@@H](N)CC[C@]4(C)[C@H]3CC[C@]12C (stereo partly specified)	IC50 ([1]; mda-mb-231): Nd(Toxic)
–	C/C=C1/[C@H](O)C[C@H]2[C@@H]3CCC4C[C@@H](NCC)CC[C@]4(C)[C@H]3CC[C@]12C (stereo partly specified)	IC50 ([1]; mda-mb-231): Nd(Toxic)
0.26 µM	C/C=C1/[C@H](O)C[C@H]2[C@@H]3CCC4C[C@H](N5CCCC5)CC[C@]4(C)[C@H]3CC[C@]12C (stereo partly specified)	–
0.48 µM	C/C=C1/C(=O)C[C@H]2[C@@H]3CCC4C[C@@H](N)CC[C@]4(C)[C@H]3CC[C@]12C (stereo partly specified)	–

IC50 [1, 14]	Compound	further results
0.85 µM	C/C=C1/[C@H](O)C[C@H]2[C@@H]3CCC4C[C@H](N5CCCCC5)CC[C@]4(C)[C@H]3CC[C@]12C (stereo partly specified)	–
–	C/C=C1/C(=O)C[C@H]2[C@@H]3CCC4C[C@H](NCC)CC[C@]4(C)[C@H]3CC[C@]12C (stereo partly specified)	IC50 ([1]; mda-mb-231): Nd(Toxic)
> 50 µM	C/C=C1/C(=O)C[C@H]2[C@@H]3CCC4C[C@@H](N5CCCCC5)CC[C@]4(C)[C@H]3CC[C@]12C (stereo partly specified)	–
> 50 µM	C/C=C1/CC[C@H]2[C@@H]3CCC4C[C@@H](N5CCCCC5)CC[C@]4(C)[C@H]3CC[C@]12C (stereo partly specified)	–
28.5 µM	C/C=C1/C(=O)C[C@H]2[C@@H]3CCC4C[C@@H](NCC)CC[C@]4(C)[C@H]3CC[C@]12C (stereo partly specified)	–
0.84 µM	C/C=C1/C(=O)C[C@H]2[C@@H]3CCC4C[C@@H](NCc5ccc(C#N)cc5)CC[C@]4(C)[C@H]3CC[C@]12C (stereo partly specified)	–
–	C/C=C1/[C@H](O)C[C@H]2[C@@H]3CCC4C[C@@H](N5CCCC5)CC[C@]4(C)[C@H]3CC[C@]12C (stereo partly specified)	IC50 ([1]; mda-mb-231): Nd(Toxic)
5.51 µM	C/C=C1/CC[C@H]2[C@@H]3CCC4C[C@@H](N(C)C)CC[C@]4(C)[C@H]3CC[C@]12C (stereo partly specified)	–
24.2 µM	C/C=C1/CC[C@H]2[C@@H]3CCC4C[C@H](N5CCCC5)CC[C@]4(C)[C@H]3CC[C@]12C (stereo partly specified)	–
–	C/C=C1/[C@H](O)C[C@H]2[C@@H]3CCC4C[C@H](NC)CC[C@]4(C)[C@H]3CC[C@]12C (stereo partly specified)	IC50 ([1]; mda-mb-231): Nd(Toxic)
1.21 µM	CC=C1CC[C@H]2[C@@H]3CCC4C[C@@H](NC)CC[C@]4(C)[C@H]3CC[C@]12C (stereo partly specified)	–
> 50 µM	CC=C1CC[C@H]2[C@@H]3CCC4C[C@H](NC)CC[C@]4(C)[C@H]3CC[C@]12C (stereo partly specified)	–
4.36 µM	C/C=C1/CC[C@H]2[C@@H]3CCC4C[C@@H](N5CCCC5)CC[C@]4(C)[C@H]3CC[C@]12C (stereo partly specified)	–
4.77 µM	C/C=C1/[C@H](O)C[C@H]2[C@@H]3CCC4C[C@@H](NC)CC[C@]4(C)[C@H]3CC[C@]12C (stereo partly specified)	–
26.7 µM	C/C=C1/CC[C@H]2[C@@H]3CCC4C[C@@H](NCc5ccc(C#N)cc5)CC[C@]4(C)[C@H]3CC[C@]12C (stereo partly specified)	–
> 50 µM	C/C=C1/CC[C@H]2[C@@H]3CCC4C[C@H](NCc5ccc(C#N)cc5)CC[C@]4(C)[C@H]3CC[C@]12C (stereo partly specified)	–
2.34 µM	C/C=C1/C(=O)C[C@H]2[C@@H]3CCC4C[C@H](NCc5ccc(C#N)cc5)CC[C@]4(C)[C@H]3CC[C@]12C (stereo partly specified)	–
–	FC(F)c1nc2ccccc2n1-c1nc(N2CCOCC2)nc(N2CCOCC2)n1	Activity [13]: Active
0.24 µM	C/C=C1/CC[C@H]2[C@@H]3CCC4C[C@@H](NC(=O)c5ccc(C#N)cc5)CC[C@]4(C)[C@H]3CC[C@]12C (stereo partly specified)	–
2.48 µM	C/C=C1/CC[C@H]2[C@@H]3CCC4C[C@H](N5CCCCC5)CC[C@]4(C)[C@H]3CC[C@]12C (stereo partly specified)	–
–	C/C=C1/C(=O)C[C@H]2[C@@H]3CCC4C[C@@H](N5CCCC5)CC[C@]4(C)[C@H]3CC[C@]12C (stereo partly specified)	IC50 ([1]; mda-mb-231): Nd(Toxic)

Compound	IC50 [1, 14]	further results
C/C=C1/CC[C@H]2[C@@H]3CCC4C[C@@H](N)CC[C@]4(C)[C@H]3CC[C@]12C (stereo partly specified)	0.09 µM	–
C/C=C1/CC[C@H]2[C@@H]3CCC4C[C@H](N)CC[C@]4(C)[C@H]3CC[C@]12C (stereo partly specified)	2.21 µM	–
C/C=C1/CC[C@H]2[C@@H]3CCC4C[C@H](NCC)CC[C@]4(C)[C@H]3CC[C@]12C (stereo partly specified)	20.2 µM	–
C/C=C1/CC[C@H]2[C@@H]3CCC4C[C@@H](NCC)CC[C@]4(C)[C@H]3CC[C@]12C (stereo partly specified)	0.17 µM	–

From ChEMBL document CHEMBL3871277, “Synthesis and anti-metastatic effects of pregn-17(20)-en-3-amine derivatives” (Eur J Med Chem, 2016)
